Reference: patent US20210230131A1, “POLYAMINO BIARYL COMPOUNDS AND THEIR USE” (INSERM (INSTITUT NATIONAL DE LA SANTÉ ET DE LA RECHERCHE …, priority 2018, published 2021)

Tests used:
Aβ1-40 peptide secretion = assay: Quantification of secreted Aβ1-40 by ELISA in SY5Y-APP695WT cells; assay type: cell-based; details: Homo sapiens; concentration inhibiting 50% of Aβ1-40 peptide secretion in SY5Y cells; 24 h treatment; mean ± SD of at least two experiments in triplicate
Experimental: (§1) Cell culture and treatment. The human neuroblastoma cell line […] was maintained in Dulbecco's modified Eagle medium (DMEM, high glucose, pyruvate-GIBCO by Life Technologies) supplemented with 10% foetal bovine serum, 2 mM L-glutamine, 1 mM non-essential amino acids and penicillin/streptomycin (GIBCO by Life Technologies) at 37° C. in a 5% CO2 humidified incubator. […] cells were maintained in 75 cm^2 culture flasks (Falcon) with supplemented DMEM medium until they reached 80% of confluence 24 h before treatment. For compounds treatment, a 10 mM stock solution was diluted in freshly supplemented DMEM medium to obtain the precise final concentration of drug. Bafilomycin A1 (BafA1), the vacuolar […] type H+ ATPase inhibitor, was purchased from Merck Millipore and was used at a final dilution of 100 nM. For drug treatment, cells were plated at a rate of 5·10^5 cells per well into 12-well plates (Falcon) and cultured with 1 mL supplemented DMEM cell medium for 24 h before drug exposure. The following day, cell medium was replaced with fresh medium containing drugs diluted at the indicated concentrations. Cells were treated for 24 h. At the end of treatments, the cell medium was collected and kept at -80° C. until use for dosage. Then, cells were rinsed once with PBS and extracted in 100 μL of Laemmli buffer (10 mM Tris, 20% glycerol and 2% Sodium dodecyl sulfate) using a cell-scraper. The cell lysate was further sonicated (30 pulses of 0.5 s, 60 Hz) for 5 min. Total protein concentration was determined using the Pierce BCA Protein Assay Kit (Thermo scientific) according to the manufacturer's instructions. Samples were stored at -80° C. until analysis. Quantification of secreted Aβ1-40/1-42 and sAPPα/sAPPβ. Conditioned media of […] collected at the end of treatments were centrifuged at 1000 g for 5 min to eliminate cells debris. Aβ1-40 and Aβ1-42 peptide concentrations in […] were determined using amyloid-beta 40 and 42 Human ELISA kits (Invitrogen) according to the manufacturer's instructions after 1:10 and 1:2 dilutions of supernatants in ELISA buffer, respectively. sAPPα and sAPPβ concentrations in ng/mL were determined using the sAPPα/sAPPβ kit (Meso Scale Diagnostics, MSD®) according to the manufacturer's instructions. Compounds of the invention (compounds 24-37, 41, 44 and 51-58) were evaluated for their ability to modulate APP processing on SY5Y human neuroblastoma cell line stably expressing the neuronal isoform of human wild-type APP695 (SYSY-APPwt). Aβ levels (Aβ1-40 and Aβ1-42) after treatment with reference and tested compounds were measured by ELISA (Table 2). […] APP carboxy-terminal fragments (αCTFs and AICD) were measured by Western blot and quantified. The effect of reference and tested compounds on αCTFs and AICD are expressed as the intensity of corresponding western-blot bands resulting from the secretase cleavages.

Aβ1-42 peptide secretion = assay: Quantification of secreted Aβ1-42 by ELISA in SY5Y-APP695WT cells; assay type: cell-based; details: Homo sapiens; concentration inhibiting 50% of Aβ1-42 peptide secretion in SY5Y cells; 24 h treatment; mean ± SD of at least two experiments in triplicate
Experimental: as §1

CTFα = assay: APP carboxy-terminal fragment αCTF by Western blot in SY5Y-APP695WT cells; assay type: cell-based, human; details: CTFα increase compared to chloroquine ([CTF]compound/[CTF]CQ) at 3 μM; mean of at least three experiments
Text: (§2) Antibodies. Primary antibodies used in this study for western-blot analysis included a homemade rabbit antiserum against the last 17 amino acids of human APP protein sequence, named APP-Cter-C17 (1/5000 in TBS-M). Anti-β-actin (1/10 000 in TBS-M) was obtained from Sigma. Anti-LC3B (1/2000 in TBS-BSA) and anti-p62/SQSTM1 (1/2000 in TBS-M) antibodies were purchased from Cell Signaling Technology. Secondary antibodies (peroxidase-labeled goat anti-rabbit IgG, 1/5000 or peroxidase-labeled horse anti-mouse IgG, 1/50000 in TBS-T) were obtained from Vector Laboratories.
(§3) Cell culture and treatment. The human neuroblastoma cell line SY5Y-APP^695WT was maintained in Dulbecco's modified Eagle medium (DMEM, high glucose, pyruvate—GIBCO by Life Technologies) supplemented with 10% foetal bovine serum, 2 mM L-glutamine, 1 mM non-essential amino acids and penicillin/streptomycin (GIBCO by Life Technologies) at 37° C. in a 5% CO2 humidified incubator. SY5Y-APP^695WT cells were maintained in 75 cm^2 culture flasks (Falcon) with supplemented DMEM medium until they reached 80% of confluence 24 h before treatment.
(§4) For drug treatment, cells were plated at a rate of 5·10^5 cells per well into 12-well plates (Falcon) and cultured with 1 mL supplemented DMEM cell medium for 24 h before drug exposure. The following day, cell medium was replaced with fresh medium containing drugs diluted at the indicated concentrations. Cells were treated for 24 h. At the end of treatments, the cell medium was collected and kept at −80° C. until use for dosage. Then, cells were rinsed once with PBS and extracted in 100 μL of Laemmli buffer (10 mM Tris, 20% glycerol and 2% Sodium dodecyl sulfate) using a cell-scraper. The cell lysate was further sonicated (30 pulses of 0.5 s, 60 Hz) for 5 min. Total protein concentration was determined using the Pierce BCA Protein Assay Kit (Thermo scientific) according to the manufacturer's instructions. Samples were stored at −80° C. until analysis.
(§5) Western Blot Analysis. Cell protein lysates were prepared for western-blot analysis by diluting the sample with 1 volume of NuPAGE® lithium dodecyl sulfate (LDS) 2× sample buffer supplemented with 20% NuPAGE® sample reducing agents (Invitrogen). Samples were heat 10 min at 100° C. 10 μg of total proteins per well were loaded onto a precast 4-12% Criterion XT Bis-Tris polyacrylamide gel (Bio-Rad) and electrophoresis was achieved after applying a tension of 150 V during 90 min using a Criterion electrophoresis Cell with the NuPAGE® MOPS SDS running buffer (1×). Proteins were transferred to a nitrocellulose membrane of […] pore size (G&E Healthcare) using the Criterion blotting system and applying a tension of 100 V for 45 min. To resolve proteins of low molecular weights such as carboxy-terminal fragments of APP, 12% Criterion XT Bis-Tris polyacrylamide gels (Bio-Rad) were used and electrophoresis was performed during 70 min at 150 V in a NuPAGE® MES SDS running buffer (1×). Proteins were transferred to a nitrocellulose membrane of 0.2 μm pore size (G&E Healthcare) at 100 V for 40 min. Molecular weights calibration was achieved using molecular weight markers (Novex and Magic Marks, Life Technologies). Protein transfer and quality were determined by a reversible Ponceau Red coloration (0.2% Xylidine Ponceau Red and 3% Trichloroacetic acid). Membranes were then blocked in 25 mM Tris-HCl pH 8.0, 150 mM NaCl, 0.1% Tween-20 (v/v) (TBS-T) and 5% (w/v) of skimmed milk (TBS-M) or 5% (w/v) of bovine serum albumin (TBS-BSA) depending on the antibody during 1 h. Membrane was rinsed three-times 10 min in TBS-T before incubation with the primary antibody overnight at 4° C. Membrane was rinsed 3 times 10 min with TBS-T and then incubated with the secondary antibody for 45 min at room temperature (RT). […] Quantifications of protein expression levels were performed with ImageJ Software (NIH). […]

AICD = AICD by Western blot in SY5Y-APP695WT cells; assay type: cell-based, human; details: AICD increase compared to chloroquine ([AICD]compound/[AICD]CQ) at 3 μM; mean of at least three experiments
Text: as §2, §3, §4, §5

IC50 (Aβ1-40 peptide secretion) [µM] | IC50 (Aβ1-42 peptide secretion) [µM] | SMILES | CTFα vs CQ (3 μM) (CTFα) | AICD vs CQ (3 μM) (AICD)
1.5 ± 0.3 | 1.2 ± 0.3 | CN(C)Cc1ccccc1-c1cccc(OCCN2CCCCC2)c1 [Compound 41, N,N-Dimethyl-1-(3′-(2-(piperidin-1-yl)ethoxy)-[1,1′-biphenyl]-2-yl)methanamine] | 0.6 | 0.7
3.9 ± 1 | 3.6 ± 0.1 | CN(C)Cc1ccccc1-c1ccc(NCCCN2CCCCC2)cc1 [Compound 44, 2′-((Dimethylamino)methyl)-N-(3-(piperidin-1-yl)propyl)-[1,1′-biphenyl]-4-amine] | 0.9 | 0.8
5 ± 0.9 | 6.5 ± 2 | CN(C)Cc1ccn(-c2ccc(NCCCN3CCCCC3)c(OCCN3CCCCC3)c2)c1 [Compound 51, 4-(3-[(Dimethylamino)methyl]-1H-pyrrol-1-yl)-2-[2-(piperidin-1-yl)ethoxy]-N-[3-(piperidin-1-yl)propyl]aniline] | 3.6 | 2.0
3.7 ± 1.3 | 5 ± 0.3 | c1cn(-c2ccc(NCCCN3CCCCC3)c(OCCN3CCCCC3)c2)cc1CN1CCCCC1 [Compound 52, 2-[2-(Piperidin-1-yl)ethoxy]-N-[3-(piperidin-1-yl)propyl]-4-[3-(piperidin-1-ylmethyl)-1H-pyrrol-1-yl]aniline] | 3.3 | 1.2
3.3 ± 0.2 | 3.5 ± 1.1 | c1cn(-c2ccc(NCCCN3CCCCC3)c(OCCN3CCCCC3)c2)cc1CN1CCOCC1 [Compound 53, 4-[3-(Morpholin-4-ylmethyl)-1H-pyrrol-1-yl]-2-[2-(piperidin-1-yl)ethoxy]-N-[3-(piperidin-1-yl)propyl]aniline] | 1.7 | 3.3
6.1 ± 0.7 | 8 ± 1.6 | CN(C)CCCNc1ccc(-n2ccc(CN(C)C)c2)cc1OCCN1CCCCC1 [Compound 55, 4-(3-[(dimethylamino)methyl]-1H-pyrrol-1-yl)-N-[3-(dimethylamino)propyl]-2-[2-(piperidin-1-yl)ethoxy]aniline] | 1.2 | 0.8
5.3 ± 0.1 | 6.3 ± 0.7 | CN(C)CCCNc1ccc(-n2ccc(CN3CCCCC3)c2)cc1OCCN1CCCCC1 [Compound 56, N-[3-(Dimethylamino)propyl]-2-[2-(piperidin-1-yl)ethoxy]-4-[3-(piperidin-1-ylmethyl)-1H-pyrrol-1-yl]aniline] | 2.5 | 2.7
2.8 ± 1.1 | 3.4 ± 2 | CN(C)CCCNc1ccc(-n2ccc(CN3CCOCC3)c2)cc1OCCN1CCCCC1 [Compound 57, N-[3-(Dimethylamino)propyl]-4-[3-(morpholine-4-ylmethyl)-1H-pyrrol-1-yl]-2-[2-(piperidin-1-yl)ethoxy]aniline] | 2.2 | 2.6
5.1 ± 1.3 | 5.4 ± 0.4 | CN(C)CCCNc1ccc(-n2ccc(CN3CCN(C)CC3)c2)cc1OCCN1CCCCC1 [Compound 58, N-[3-(dimethylamino)propyl]-4-(3-[(4-methylpiperazin-1-yl)methyl]-1H-pyrrol-1-yl}-2-[2-(piperidin-1-yl)ethoxy]aniline] | 3.0 | 1.8
